What was measured:
[1] = system: Staphylococcus aureus; assay: MIC by broth microdilution, antibiotics with and without ALAFAC; format: cell-based; details: NRS 123; methicillin + ALAFAC; Ruthenium Red 30 μM, Amiloride 1 mM
Experimental: Methodology: Minimal inhibitory concentrations (MICs) were determined in 96-well microtiter plates using the microdilution method according to approved standards of the CLSI except that Todd-Hewitt medium supplemented with 0.5% yeast extract, which yields reproducible MIC results was used as the test medium for S. pneumoniae. For the remaining species Mueller-Hinton medium was used as indicated by the CLSI standard. Each well contained two-fold dilutions of antibiotic, was seeded with a final bacterial concentration of 10^5 CFU/mL, and was incubated for 18 h at 37° C. in a Synergy II microplate reader (Biotek, Winooski, Vt.) where the OD600 was recorded every 5 minutes to monitor bacterial growth. The MIC was defined as the lowest concentration of antimicrobial agent solution at which no increase in OD600 was detected.
In vitro susceptibility tests. Minimal inhibitory concentrations (MICs) were determined in 96-well microtiter plates using the microdilution method according to approved standards of the CLSI as described previously. However, rather than Mueller-Hinton broth, Tryptic soy broth (TSB) was used for susceptibility testing as it is the common media used for Staphylococcal growth, and as it has shown more consistent results for a variety of antimicrobials when tested against Staphylococci. […] A two-fold dilution series of antibiotics in triplicate and in the presence or absence of ALAFAC was prepared in 96 well microtiter plates, and each well was seeded with a final bacterial concentration of 10^5 CFU/mL, and was incubated for 24 h at 37° C. in a Synergy 2 microplate reader (Biotek, Winooski, Vt.) where the Optical Density at 600 nm (OD600) was recorded every 5 minutes to monitor bacterial growth. The MIC was defined as the lowest concentration of antimicrobial agent solution where no increase in OD600 was detected.

[2] = system: Streptococcus pneumoniae; assay: Short-time kill assay on planktonic cultures; format: cell-based; details: D39, 1 hour, staurosporine 20 μM; for Effect of inhibitor on ALAFAC potentiation of gentamicin and penicillin G: Ruthenium Red 30 μM
Experimental: Methodology: In late logarithmic growth phase, the bacteria were harvested by centrifugation at 12,000×g for 10 minutes and resuspended in phosphate-buffered saline (PBS; […], […], […], pH 7.4). Appropriate dilutions of the bacteria were suspended in PBS and treated with indicated concentrations of ALAFAC and/or antibiotics for various times. The effect on bacterial viability was assessed by plating serial dilutions of bacterial sample on tryptic soy agar plates containing 5% sheep blood (viable counts) and determining viable colony forming units after overnight growth at 37° C.
Short-time kill assays. In late logarithmic growth phase, the bacteria were harvested by centrifugation at 12,000×g for 10 minutes and resuspended in phosphate-buffered saline (PBS; 30 mM Na2HPO4, 10 mM KH2PO4, […], pH 7.4). Appropriate concentrations of the bacteria (around 10^8 colony forming units per ml) were suspended in PBS and treated with indicated concentrations of ALAFAC and/or antibiotics for various times. The effect on bacterial viability was assessed by plating serial dilutions of bacterial sample on tryptic soy agar plates containing 5% sheep blood (viable counts) and determining viable CFUs after overnight growth at 37° C.

[3] = system: NRS 123 Staphylococci; assay: Membrane potential, DiBAC4(3) fluorescence; format: cell-based, Staphylococcus aureus; details: Ruthenium Red, Amiloride
Experimental: Assessing membrane potential. Staphylococci grown to late log phase in TSB were pelleted by centrifugation at 2,400×g for 10 minutes and washed twice by resuspension in PBS. The bacterial pellet was resuspended in PBS to half of the original volume and energized with 50 mM glucose for 15 minutes at 37° C. To measure membrane potential of the staphylococcal membrane, 500 nM DiBAC4(3) (bis-(1,3-dibutylbarbituric acid) trimethine oxonol; Molecular Probes, Eugene, Oreg., USA) were added. […] The plate was then placed immediately into a pre-warmed (37° C.) Synergy 2 Multi-Mode Microplate Reader (BioTek) where fluorescence readings from DiBAC4(3) (485/20 nm excitation, 528/20 nm emission) were taken every minute for one hour. The difference in fluorescence intensity between the untreated control and the ALAFAC-treated sample was calculated for the “no inhibitor” samples and for the “inhibitor” samples using the values after 60 minutes. The fluorescence intensity difference for the “inhibitor” samples was then expressed as fold change of the intensity compared with the ALAFAC alone (“no inhibitor”) sample, providing the degree of depolarization compared to the “ALAFAC alone” sample.

[4] = system: NRS 384 Staphylococci; assay: Radioisotope 45Ca2+ transport assay; format: cell-based, Staphylococcus aureus; details: ALAFAC addition, Ruthenium Red 30 μM
Experimental: Radioisotope ^45Ca^2+ transport assays. Staphylococcus aureus was grown to log phase, washed three times and resuspended in 1×PBS containing 0.5 mM CaCl2 (CaPBS). No glucose was added in order to minimize the interference created by extrusion of Ca^2+ via ATPase pumps. ^45CaCl2 (PerkinElmer; Waltham, Mass., USA) was added to the cells at a final concentration of 2.5 μCi/mL, followed by inhibitor compound, with each addition given two minutes equilibration time. The untreated baseline sample was measured at this point. The sample was then divided, ALAFAC was added to one of the tubes, and ^45Ca^2+ uptake was measured at various intervals. For each sample, 100 μL was dispensed onto Millipore 0.3 μm PHWP filters (EMD Millipore; Billerica, Mass., USA) presoaked in CaPBS, and immediately washed with 9 mL of CaPBS via syringe filtration through Millipore Swinnex® filter holders. Filters were placed in scintillation vials with 5 mL of scintillation fluid, and CPMs were detected on a Wallac 1409 liquid scintillation counter (Wallac Oy, Turku, Finland). The results were expressed as ΔCPM that was calculated for each sample at the indicated time points as the difference between ALAFAC-treated and untreated samples.

[5] = system: NRS 384 Staphylococci; assay: Intracellular pH measurement (BCECF-AM); format: cell-based, Staphylococcus aureus; details: ALAFAC 100 μg/mL (6 μM), RuR 30 μM, Amiloride 1 mM
Source text: Intracellular pH measurement. A reported protocol for intracellular pH (pHi) measurement was modified and optimized for S. aureus by testing the effect of various dye concentrations and staining times on the measured fluorescence of S. aureus isolate NRS 384 grown to mid-log phase. Cell samples were subjected to increasing concentrations of the membrane-permeant acetoxymehtyl (AM) ester derivative of the dual-excitation ratiometric pH indicator dye BCECF (2′,7′-bis-(2-carboxyethyl)-5-(and-6)-carboxyfluorescein), for 30 minutes at 30° C. Fluorescence was measured as a ratio of fluorescence at 530 nm with dual wavelength excitation at 490 and 440 nm and calibration curves were established for each independent experiment. After testing a number of loading concentrations we observed that the fluorescence ratios remains generally constant when concentrations above 20 μM was used. Therefore 25 μM BCECF-AM was used for all experiments. The optimized staining time, 30 minutes, was determined using the same criteria and was used for all experiments. After loading, the cells were washed twice in PBS by centrifugation and the resulting pellet was resuspended in PBS to the original volume and ALAFAC and ALAFAC/antibiotic combinations were added. CCCP was added as a positive control. CCCP is a lipophilic weak acid that is soluble in the lipid domain of the membrane in both the protonated and deprotonated form. This allows it to act as a protonophore causing an influx of H^+ into the cytoplasm, dissipating both the electrical potential and the H^+ gradient across the inner membrane. For each experiment calibration was performed where cells were resuspended in high [K^+] buffers at different pH values ranging from 6.5 to 8.0.

N.N.N.N.N.N.N.N.N.N.N.N.N.N.[Cl-].[Cl-].[Cl-].[Cl-].[Cl-].[Cl-].[O-2].[O-2].[Ru+3].[Ru+3].[Ru+4] [Ruthenium Red]
Effect of inhibitor on ALAFAC antibiotic potentiation in MIC assay [1]: completely abolished
Effect of inhibitor on ALAFAC potentiation of gentamicin and penicillin G [2]: completely abolished
Effect of inhibitor on ALAFAC potentiation of gentamicin and penicillin G ([2]; listed as ruthenium red): significantly blocked
Effect of inhibitor on ALAFAC-induced death ([2]; lethal ALAFAC (12×MIC), ruthenium red 30 μM): significantly reduced
Effect of inhibitor on ALAFAC-associated membrane depolarization [3]: completely abolished
Intracellular Ca2+ (45Ca2+ uptake) [4]: almost completely blocked
Transmembrane proton gradient (intracellular pH) [5]: did not fully inhibit

Source: patent US9526766B2, “Potentiation of antibiotic treatment with a protein-lipid complex” (priority 2012, dated 2016)
